Data taken from BindingDB's records for doi:10.1021/jm020230j (Sunesis Pharmaceuticals, 2002).

Assays:
Test in all cases: Fluorometric Assay
Settings in all cases: pH 7.4; 25 °C
Caspase-7 = target: T1, Caspase-7 (Homo sapiens, UniProt P55210)
T1 sequence (P55210 whole entry): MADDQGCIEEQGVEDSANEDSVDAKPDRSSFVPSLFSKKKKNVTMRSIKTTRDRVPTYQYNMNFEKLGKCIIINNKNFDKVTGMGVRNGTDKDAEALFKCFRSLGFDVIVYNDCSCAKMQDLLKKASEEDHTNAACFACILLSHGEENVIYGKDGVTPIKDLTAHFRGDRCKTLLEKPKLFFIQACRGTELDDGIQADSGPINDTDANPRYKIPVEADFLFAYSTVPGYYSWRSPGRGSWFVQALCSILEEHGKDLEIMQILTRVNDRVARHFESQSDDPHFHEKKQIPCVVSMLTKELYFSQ
Experimental: (§1) The effectiveness of compounds against the activity of human recombinant caspase-1-8 was measured using fluorometric assays. Assays were carried out in a 96-well flat bottom, polystyrene plates. […] Kinetic data were collected over a 15 min assay run at room temperature. IC50 values were calculated through a four parameter fit curve using the computer application SOFTmax PRO. Ki(apparent) values were calculated using the following equation: Ki(app) = IC50/(1 + [substrate]/Km).

Caspase-6 = target: T2, Caspase-6 (Homo sapiens, UniProt P55212)
T2 sequence (P55212 whole entry): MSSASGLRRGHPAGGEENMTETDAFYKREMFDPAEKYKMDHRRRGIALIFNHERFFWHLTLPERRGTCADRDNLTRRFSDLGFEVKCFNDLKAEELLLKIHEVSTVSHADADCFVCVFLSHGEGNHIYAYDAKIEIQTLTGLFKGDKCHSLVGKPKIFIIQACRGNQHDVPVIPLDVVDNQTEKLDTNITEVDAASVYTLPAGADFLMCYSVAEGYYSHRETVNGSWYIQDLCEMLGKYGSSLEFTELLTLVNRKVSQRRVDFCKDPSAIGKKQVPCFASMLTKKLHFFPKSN
Experimental: as §1

Caspase-1 = target: T3, Caspase-1 (Homo sapiens, UniProt P29466)
T3 sequence (P29466 whole entry): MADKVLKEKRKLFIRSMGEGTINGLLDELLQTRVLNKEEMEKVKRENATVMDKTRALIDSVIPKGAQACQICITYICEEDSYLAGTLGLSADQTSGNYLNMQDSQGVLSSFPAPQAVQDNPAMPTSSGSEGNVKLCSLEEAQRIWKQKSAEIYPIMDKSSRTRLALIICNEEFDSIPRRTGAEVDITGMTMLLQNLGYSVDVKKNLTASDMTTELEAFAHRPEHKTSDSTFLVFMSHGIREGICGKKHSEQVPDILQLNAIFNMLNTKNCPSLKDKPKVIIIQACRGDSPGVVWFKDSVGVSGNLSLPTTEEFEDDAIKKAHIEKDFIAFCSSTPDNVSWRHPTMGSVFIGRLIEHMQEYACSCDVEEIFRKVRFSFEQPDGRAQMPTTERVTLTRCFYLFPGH
Experimental: as §1

Caspase-2 = target: T4, Caspase-2 (Homo sapiens, UniProt P42575)
T4 sequence (P42575 whole entry): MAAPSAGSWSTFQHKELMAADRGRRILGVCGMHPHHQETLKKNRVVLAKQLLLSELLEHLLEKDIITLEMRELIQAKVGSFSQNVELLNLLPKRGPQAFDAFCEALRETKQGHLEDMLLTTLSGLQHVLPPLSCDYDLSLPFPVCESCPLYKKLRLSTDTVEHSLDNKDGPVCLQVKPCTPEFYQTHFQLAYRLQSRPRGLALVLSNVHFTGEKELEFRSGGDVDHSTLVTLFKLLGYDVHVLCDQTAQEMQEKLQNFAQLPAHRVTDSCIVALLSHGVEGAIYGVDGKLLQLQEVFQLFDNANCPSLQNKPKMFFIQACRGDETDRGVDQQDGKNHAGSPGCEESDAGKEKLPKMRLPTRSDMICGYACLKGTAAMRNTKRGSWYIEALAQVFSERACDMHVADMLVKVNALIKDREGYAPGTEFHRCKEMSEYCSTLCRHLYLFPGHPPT
Experimental: as §1

Caspase-3 = target: T5, Caspase-3 (Homo sapiens, UniProt P42574)
T5 sequence (P42574 whole entry): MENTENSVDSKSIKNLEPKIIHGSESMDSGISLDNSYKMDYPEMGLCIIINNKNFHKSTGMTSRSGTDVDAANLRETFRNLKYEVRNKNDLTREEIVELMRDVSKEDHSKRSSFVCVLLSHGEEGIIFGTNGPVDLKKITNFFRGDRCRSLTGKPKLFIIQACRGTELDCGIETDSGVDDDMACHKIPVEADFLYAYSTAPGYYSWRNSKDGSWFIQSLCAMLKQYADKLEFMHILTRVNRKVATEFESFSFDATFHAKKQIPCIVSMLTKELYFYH
Experimental: as §1

Caspase-8 = Caspase-8 (Homo sapiens, UniProt Q14790)
Chain of Caspase-8 (Q14790 217-374 limits assumed): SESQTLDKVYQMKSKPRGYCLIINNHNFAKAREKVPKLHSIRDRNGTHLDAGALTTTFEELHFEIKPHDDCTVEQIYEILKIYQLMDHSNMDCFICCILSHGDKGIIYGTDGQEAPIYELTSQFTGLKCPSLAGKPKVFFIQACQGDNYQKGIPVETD
Chain of Caspase-8 (Q14790 385-479 limits assumed): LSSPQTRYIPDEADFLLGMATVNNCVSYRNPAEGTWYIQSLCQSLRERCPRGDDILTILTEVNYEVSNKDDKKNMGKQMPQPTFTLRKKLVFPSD
Experimental: as §1

Caspase-4 = target: T6, Caspase-4 (Homo sapiens, UniProt P49662)
T6 sequence (P49662 whole entry): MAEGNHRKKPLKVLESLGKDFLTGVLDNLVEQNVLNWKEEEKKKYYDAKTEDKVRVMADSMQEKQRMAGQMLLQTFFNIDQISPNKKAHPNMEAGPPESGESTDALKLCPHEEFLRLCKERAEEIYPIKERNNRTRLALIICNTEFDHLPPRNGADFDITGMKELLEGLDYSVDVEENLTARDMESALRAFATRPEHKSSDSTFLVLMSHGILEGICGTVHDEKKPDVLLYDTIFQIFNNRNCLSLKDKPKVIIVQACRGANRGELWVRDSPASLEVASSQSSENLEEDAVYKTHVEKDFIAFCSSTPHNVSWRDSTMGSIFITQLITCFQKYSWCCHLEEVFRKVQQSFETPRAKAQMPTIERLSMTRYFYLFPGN
Experimental: as §1

Ki (Caspase-7): 90 nM | Ki (Caspase-6): 120 nM | Ki (Caspase-1): 1500 nM | Ki (Caspase-2): 11000 nM | Ki (Caspase-3): 30 nM | Ki (Caspase-8): 810 nM | Ki (Caspase-4): 38000 nM
SMILES: O=C(O)C[C@H](NC(=O)c1ccc(CNS(=O)(=O)c2ccc(O)c(C(=O)O)c2)nc1)C(=O)CSCc1ccccc1Cl [(S)-5-({5-[1-Carboxymethyl-3-(2-chloro-benzylsulfanyl)-2-oxo-propylcarbamoyl]pyridin-2-ylmethyl}sulfamoyl)-2-hydroxy-benzoic Acid]
